How the values were obtained:
Con A-induced dry eye = Con A-induced dry eye disease (DED) in rabbits: TBUT, tear osmolarity, STT, tear lactoferrin; assay type: in vivo, New Zealand White (NZW) rabbits; details: 1 week of treatment, comparison with ophthalmic NSAIDs (FIG. 5)
Procedure: Con A was injected under ultrasound guidance into all the lacrimal glands and the success of the injection was verified by a post-injection ultrasound image (see FIG. 1 and FIG. 2). […] This variation explains why the blind injections recommended in the original method are often unsuccessful. This was confirmed by mixing the Con A solution with methylene blue and tracking its course after injection. In about ⅓ of the cases, Con A ended up outside the gland.
Four parameters of efficacy were evaluated instead of the usual one or two. They include (a) the tear break up time (TBUT), determined using 0.2% fluorescein over the eye and recording the time taken to develop black dots, lines or obvious disruption of the fluorescein film; (b) tear osmolarity, measured using TearLab Osmolarity Test and following the manufacturer's instructions (TearLab Corp., San Diego, Calif.); (3) Schirmer tear test (STT), determined using Schirmer strips (EagleVision, Denville, N.J.) inserted between the cornea and the palpebral conjunctiva at the mid-point of the lower lid and measuring the length of moistened strip at 5 min; and (4) tear lactoferrin levels measured by ELISA kit (MyBiosource, San Diego, Calif.) following the instructions of the manufacturer. All four have been used in clinical practice and correlate with the clinical activity of the disease. The STT is the least reliable and, as result, it is clinically used less than half as frequently as TBUT.
The injections of Con A to the lacrimal glands were repeated weekly as needed. When longer than a 1-week periods of study are needed, repeat injections prolong dry eye for at least 3 weeks, making the originally acute model chronic.
PS Suppresses Con A—Induced Dry Eye in Rabbits. The effect of PS on dry eye was determined in New Zealand White (NZW) rabbits, 2-3 kg (Charles River Labs, Waltham, Mass.). These rabbits were housed singly in rooms with strict temperature (70±5° F.) and humidity (45±5%) control and acclimated for at least 2 weeks prior to induction of dry eye by injection of Con A as above. NZW rabbits with Con A-induced dry eye (three sets of injections) were treated with PS formulated as nanoparticles and administered topically as eye drops 3×/day for 21 days, starting on the day of Con A injection. […] Similar results were obtained on days 5 and 14 (data not shown). […]
The efficacy of lower concentrations of PS. The efficacy of lower concentrations of PS, 0.1% and 0.2% in DED, was also evaluated. The same animal model (rabbits with Concanavalin A-induced DED) was used. The same methodology described herein was followed, except that PS was administered as two eye drops per eye (˜25 μL each) four times a day. PS was formulated in: 10% (2-hydroxypropyl)-β-cyclodextrin, 4% Tween 80, 2.5% Vitamin E TPGS, 1.4% polyvinyl alcohol (13,000-26,000 molecular weight), 0.001% polyquad, as described herein. The Table below summarizes the corresponding findings: […]

PGE2 = PGE2 levels in tears and cornea of rabbits (ELISA); assay type: in vivo; details: rabbits with Con A-induced DED, administered once topically, 1 h later
Procedure: FIGS. 9A and 9B illustrate that PS preserves the levels of PGE2 in tears and the cornea. In FIG. 9A, PGE2 levels were determined by ELISA in tears collected on day 7 from naïve rabbits and rabbits with Con A-induced DED treated for 1 week with vehicle or PS. In FIG. 9B, PGE2 levels were further examined. Upper panel: PGE2 levels in the tears of naïve rabbits and rabbits with Con A-induced DED treated for 1 h with PS or ketorolac as in Methods. Lower panel: PGE2 levels in the corneal tissue of naïve rabbits and rabbits with Con A-induced DED treated for 1 week with vehicle or PS or ketorolac or diclofenac. n=8 eyes/group. Values=mean±SEM.
It was determined that the levels of PGE2 in rabbit tears in three groups of rabbits, naïve and those with Con A-induced DED that were treated for 1 week either with PS or vehicle.
In an acute experiment, administered once topically to the eyes of four groups of rabbits with Con A-induced DED was one of the following: vehicle, PS, ketorolac or diclofenac; the latter two are NSAIDs used for the treatment of ocular inflammation and pain. It was determined that the levels of PGE2 in the cornea of these rabbits obtained 1 h later as well as in the corneas of naïve rabbits.

corneal sensitivity = test: Corneal touch threshold (CTT) assay, Cochet-Bonnet aesthesiometer; assay type: in vivo, rabbits; details: commercially available form, one eye drop
Procedure: FIGS. 10A and 10B illustrate the ocular analgesic effect of PS. FIG. 10A: One drop of PS 0.5%, vehicle, or lidocaine was applied to one eye of rabbits (n=4/group) and the corneal touch threshold (CTT) was determined using an Eshesiometer. Vehicle had no effect on CTT (not shown; overlaps with the 0 value horizontal line). Values=mean±SEM. FIG. 10B: PS 0.5% in formulations differing in pH as indicated produced different analgesic responses in rabbits. The areas under each curve (AUC), indicted in the figure, that quantify these responses vary by as much as >5 fold. Values are the average of 2; all were within 11% of each other.
FIGS. 11A and 11B illustrates the effect of various concentrations of PS on corneal sensitivity determined by the corneal touch threshold (CTT) assay. The CTT score is expressed as length of filament. Measurements were performed at the indicated time points after a single application of PS as an eye drop. Rabbits with normal or dry eyes were studied (n=6 eyes per group). Dry eyes were induced by Concanavalin A injection as described in the text. The % PS content in each study is shown. The numbers in parentheses indicate the corresponding value of the area under the curve. Values=mean±SEM.
FIGS. 12A and 12B illustrate the effect of various drugs on corneal sensitivity determined by the corneal touch threshold (CTT) assay described herein. Each drug was used in its commercially available form; one eye drop of each was applied. The numbers in parentheses indicate the corresponding value of the area under the curve. Values=mean±SEM.
The analgesic effect of PS was examined on the surface of the eye by determining the corneal touch threshold (CTT) using the Luneau Cochet-Bonnet Aesthesiometer (Western Ophthalmics, Lynwood, Wash.) an adjustable nylon monofilament with a defined diameter, which is applied in different lengths to the center of the cornea.
In this embodiment, the composition of the PS preparation was: 0.5% PS, 18% (2-hydroxypropyl)-β-cyclodextrin (HP-β-CD), 1-4% Tween 80. Preparation Method: HP-β-CD was dissolved in purified water maintained in a 50° C. water bath. PS was added into this solution and kept at 50° C. overnight with stirring at 500 rpm until PS was fully dissolved. Tween 80 was added into the PS HP-β-CD solution, which was then centrifuged at 3000 rpm for 10 min to remove undissolved particles. The supernatant was collected and pH was adjusted to the desired value using a NaOH solution. The analgesic effect of PS was examined as above.
The effect of PS and other compounds on corneal sensitivity was determined in rabbits with normal or dry eyes using the CTT assay as above; DED was induced by Concanavalin A as previously described. The CTT score, expressed as filament length in mm, of normal eyes was 5.56±0.11 mm (mean±SEM for this and subsequent values) and in dry eyes 4.17±0.12 mm; the difference between the two is statistically significant (p<0.0001).

[1] = Rabbit ocular PK study of PS emulsion (2% PS); assay type: in vivo, New Zealand rabbits; details: 2% PS emulsion, three 25 μL eye drops; PS and its metabolites
Procedure: A formulation includes 2% PS; 5% Propylene glycol, 10% Mineral oil, 4% Tween 60, 4% Tween 80, 10% (2-hydroxypropyl)-β-cyclodextrin (HP-β-CD). Preparation method (2 mL scale): Oil phase: weight PS into glass vial, add propylene glycol, stir at 50° C. to obtain a clear solution. Then add mineral oil, stir to obtain a clear solution. Water phase: Dissolve HP-β-CD, […] and Tween 80 into water. Add water phase into oil phase, probe-sonicate for 5 sec, 8 times, with 5 sec intervals. Resultant emulsion is filtrated through 0.22 μm filter.
Rabbit ocular pharmacokinetic (PK) study: PS was administered to New Zealand rabbits topically to the eye; as three 25 μL eye drops, 5 min apart. Rabbits were euthanized at eight specified time points between 0.25 to 16 h, ocular tissues were dissected and PS was extracted with acetonitrile and its tissue levels as well as those of its metabolites were determined by HPLC as described (Xie G. et al., Br J Pharmacol 165:2′52-2166; 2012).

[2] = Ocular PK study of PS nanoparticles (mPEG-PLA), topical eye drops; assay type: in vivo, New Zealand white rabbits; set-up: AUC(0-t) / AUC0-16h, cornea / AUC0-16h, conjunctiva: concentration or dose not given beside the values; details: PS and its metabolites
Procedure: Composition: ˜3.0-3.5% PS, 96.5˜97% methoxy poly(ethylene glycol)-poly(lactide) (mPEG-PLA).
Preparation Method: Oil phase: 150 mg of PS and 1 g of PEG-PLA (Akina, Inc) were dissolved in 20 mL dichloromethane (DCM). Water phase: 365 mg of sodium cholate were dissolved in 60 ml of purified water. 5 mL of the oil phase was gently added into 15 mL of the water phase in a 50 mL Eppendorf conical tube. To create an emulsion, we used robe sonication for 2 min at 75% output (Branson 150, Fisher Scientific™, USA); the watt output was 12-13. The emulsion was transferred into a 100 mL beaker and stirred overnight at 600 rpm in a chemical hood until the DCM was fully evaporated. This was followed by centrifugation at 14,000 rpm for 1 h (Dupont, RC-5C). Then, the supernatant was transferred to another tube into which 3 mL of PBS were added to resuspend the nanoparticles. The nanoparticle solution was centrifuged for 6-7 seconds to remove aggregates. This supernatant was the final preparation.
Ocular PK study: PS formulated in nanoparticles as above was administered topically as eye drops to New Zealand white rabbits. The biodistribution of PS in ocular tissues at the indicated time points post administration was determined by HPLC.

MMPs = test: MMP activity in the cornea of rabbits; assay type: in vivo; details: naïve rabbits, topical, 1 h
Procedure: FIGS. 8A and 8B illustrate that PS suppresses the levels and activity of MMPs. In FIG. 8A, the human conjunctival cells were treated with PS at 1×IC50 (TNF-α was added to the culture medium at a concentration of 10 ng/ml 2 h after PS. The levels of MMP-1 in the culture medium were determined by ELISA as in Methods (n=3). Values=mean±SEM. In FIG. 8B, two groups of rabbits with Con A-induced DED were treated with vehicle or PS for 1 week as in Methods. Naïve rabbits served as controls. MMP-9 levels in the ILG (top) and the aqueous humor (middle) were determined by ELISA. MMP activity was determined in the cornea of naïve and PS- or ketorolac-treated rabbits with Con A-induced DED as previously. n=8 eyes/group. Values=mean±SEM.
In an acute experiment, naïve rabbits were treated with either PS or ketorolac (both administered topically) for 1 h and determined the activity of MMP in the cornea. This assay determines the activity of MMPs collectively in a given tissue.

Cmax, aqueous humor [1] [μm]	Cmax, conjunctiva [1] [μm]	Cmax, cornea [1] [μm]	Cmax, conjunctiva [2] [nM]	Cmax, cornea [2] [nM]	Compound	effect on corneal sensitivity (CTT), dry eyes (corneal sensitivity)	effect on corneal sensitivity (CTT), normal eyes (corneal sensitivity)	also measured
–	–	–	–	–	O=C(O)Cc1ccccc1Nc1c(Cl)cccc1Cl [diclofenac, reference compound]	–	–	STT (Con A-induced dry eye): failed to improve; TBUT (Con A-induced dry eye): failed to improve; osmolarity (Con A-induced dry eye): failed to improve; PGE2 levels in the cornea (PGE2): suppressed nearly completely
–	–	–	–	–	Nc1c(CC(=O)O)cccc1C(=O)c1ccc(Br)cc1 [bromfenac, reference compound]	no analgesic effect	display analgesic efficacy	–
2.0	0.0	0.0	0	600	CSc1ccc(/C=C2/C(C)=C(CC(=O)O)c3cc(F)ccc32)cc1 [sulindac sulfide]	–	–	–
–	–	–	–	–	CS(=O)(=O)c1cccc(C[C@H](NC(=O)c2c(Cl)cc3c(c2Cl)CCN(C(=O)c2ccc4ccoc4c2)C3)C(=O)O)c1 [Lifitegrast, lifitegrast, reference compound]	lack any ocular analgesic effect	lack any ocular analgesic effect	–
–	–	–	–	–	O=C(c1ccccc1)c1ccc2n1CCC2C(=O)O (centres unmarked) [ketorolac, reference compound]	no analgesic effect	display analgesic efficacy	suppression of the activity of MMPs in the cornea (MMPs): failed to affect; STT (Con A-induced dry eye): failed to improve; TBUT (Con A-induced dry eye): failed to improve; osmolarity (Con A-induced dry eye): failed to improve; PGE2 levels in the cornea (PGE2): suppressed nearly completely
0.0	0.8	4.0	1600	1300	CC1=C(CC(=O)O)c2cc(F)ccc2/C1=C\c1ccc(S(C)(=O)=O)cc1 [sulindac sulfone]	–	–	AUC0-16h, conjunctiva [1]: 3.2 µM·h; AUC0-16h, cornea [1]: 24.4 µM·h; Tmax, aqueous humor [1]: 0.0 h; Tmax, conjunctiva [1]: 2.0 h; Tmax, cornea [1]: 4.0 h; AUC0-16h, conjunctiva [2]: 7.3 µM·h; AUC0-16h, cornea [2]: 10 µM·h; Tmax, cornea [2]: 4 h
1.0	4.2	8.7	3800	3600	CC1=C(CC(=O)O)c2cc(F)ccc2/C1=C\c1ccc([S+](C)[O-])cc1 (centres unmarked) [sulindac, reference compound]	–	–	–
